According to EP4745137A1 (Gluetacs Therapeutics (Shanghai) Co., Ltd., priority 2023, dated 2025):

Key:
Assay type in all cases: cell-based
Details in all cases: 24 hours of compound treatment, 50 nM and 500 nM tested (concentration behind the class not stated)
WEE1 = target: T1, WEE1 (Homo sapiens, UniProt P30291+Q96SW2); assay: Western-blot assay of substrate protein degradation in hPBMCs, WEE1
T1 construct: endogenous in cells; host or cells: hPBMCs (Milecell Biotechnologies)

IKZF1 = target: T2, IKZF1 (Homo sapiens, UniProt Q13422+Q96SW2); assay: Western-blot assay of substrate protein degradation in hPBMCs, IKZF1
T2 construct: endogenous in cells; host or cells: hPBMCs (Milecell Biotechnologies)

IKZF2 = target: T3, IKZF2 (Homo sapiens, UniProt Q96SW2+Q9UKS7); assay: Western-blot assay of substrate protein degradation in hPBMCs, IKZF2
T3 construct: endogenous in cells; host or cells: hPBMCs (Milecell Biotechnologies)

IKZF3 = target: T4, IKZF3 (Homo sapiens, UniProt Q96SW2+Q9UKT9); assay: Western-blot assay of substrate protein degradation in hPBMCs, IKZF3
T4 construct: endogenous in cells; host or cells: hPBMCs (Milecell Biotechnologies)

CK1α = target: T5, CK1α (Homo sapiens, UniProt P48729+Q96SW2); assay: Western-blot assay of substrate protein degradation in hPBMCs, CK1α
T5 construct: endogenous in cells; host or cells: hPBMCs (Milecell Biotechnologies)

GSPT1 = target: T6, GSPT1 (Homo sapiens, UniProt P15170+Q96SW2); assay: Western-blot assay of substrate protein degradation in hPBMCs, GSPT1
T6 construct: endogenous in cells; host or cells: hPBMCs (Milecell Biotechnologies)
T6 sequence (P15170 whole entry): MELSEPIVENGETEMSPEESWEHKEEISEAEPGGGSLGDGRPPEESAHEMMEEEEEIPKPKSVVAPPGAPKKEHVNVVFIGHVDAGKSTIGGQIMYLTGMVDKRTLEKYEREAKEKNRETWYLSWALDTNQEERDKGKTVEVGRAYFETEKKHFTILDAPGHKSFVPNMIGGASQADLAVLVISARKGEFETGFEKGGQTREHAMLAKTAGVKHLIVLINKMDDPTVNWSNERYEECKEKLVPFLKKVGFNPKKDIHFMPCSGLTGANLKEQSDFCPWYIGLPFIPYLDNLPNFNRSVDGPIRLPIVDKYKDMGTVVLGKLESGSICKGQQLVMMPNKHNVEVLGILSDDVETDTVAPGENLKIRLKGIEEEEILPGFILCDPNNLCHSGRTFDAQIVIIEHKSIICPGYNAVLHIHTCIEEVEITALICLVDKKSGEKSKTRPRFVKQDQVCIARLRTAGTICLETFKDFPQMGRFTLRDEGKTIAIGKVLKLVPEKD
T6 sequence (Q96SW2 whole entry): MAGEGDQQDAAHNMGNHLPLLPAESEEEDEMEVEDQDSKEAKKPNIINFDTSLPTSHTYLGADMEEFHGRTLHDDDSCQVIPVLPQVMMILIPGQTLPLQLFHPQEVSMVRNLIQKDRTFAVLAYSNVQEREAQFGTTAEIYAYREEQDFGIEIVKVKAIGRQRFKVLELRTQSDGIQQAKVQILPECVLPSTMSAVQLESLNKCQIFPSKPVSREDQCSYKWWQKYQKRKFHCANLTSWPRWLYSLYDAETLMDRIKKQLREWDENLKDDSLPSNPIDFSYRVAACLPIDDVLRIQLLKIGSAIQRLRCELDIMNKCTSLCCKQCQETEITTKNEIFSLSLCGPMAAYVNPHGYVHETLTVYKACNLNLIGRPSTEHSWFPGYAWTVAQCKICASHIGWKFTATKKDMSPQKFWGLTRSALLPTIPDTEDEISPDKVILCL
T6 sequence (Q16531 whole entry partner): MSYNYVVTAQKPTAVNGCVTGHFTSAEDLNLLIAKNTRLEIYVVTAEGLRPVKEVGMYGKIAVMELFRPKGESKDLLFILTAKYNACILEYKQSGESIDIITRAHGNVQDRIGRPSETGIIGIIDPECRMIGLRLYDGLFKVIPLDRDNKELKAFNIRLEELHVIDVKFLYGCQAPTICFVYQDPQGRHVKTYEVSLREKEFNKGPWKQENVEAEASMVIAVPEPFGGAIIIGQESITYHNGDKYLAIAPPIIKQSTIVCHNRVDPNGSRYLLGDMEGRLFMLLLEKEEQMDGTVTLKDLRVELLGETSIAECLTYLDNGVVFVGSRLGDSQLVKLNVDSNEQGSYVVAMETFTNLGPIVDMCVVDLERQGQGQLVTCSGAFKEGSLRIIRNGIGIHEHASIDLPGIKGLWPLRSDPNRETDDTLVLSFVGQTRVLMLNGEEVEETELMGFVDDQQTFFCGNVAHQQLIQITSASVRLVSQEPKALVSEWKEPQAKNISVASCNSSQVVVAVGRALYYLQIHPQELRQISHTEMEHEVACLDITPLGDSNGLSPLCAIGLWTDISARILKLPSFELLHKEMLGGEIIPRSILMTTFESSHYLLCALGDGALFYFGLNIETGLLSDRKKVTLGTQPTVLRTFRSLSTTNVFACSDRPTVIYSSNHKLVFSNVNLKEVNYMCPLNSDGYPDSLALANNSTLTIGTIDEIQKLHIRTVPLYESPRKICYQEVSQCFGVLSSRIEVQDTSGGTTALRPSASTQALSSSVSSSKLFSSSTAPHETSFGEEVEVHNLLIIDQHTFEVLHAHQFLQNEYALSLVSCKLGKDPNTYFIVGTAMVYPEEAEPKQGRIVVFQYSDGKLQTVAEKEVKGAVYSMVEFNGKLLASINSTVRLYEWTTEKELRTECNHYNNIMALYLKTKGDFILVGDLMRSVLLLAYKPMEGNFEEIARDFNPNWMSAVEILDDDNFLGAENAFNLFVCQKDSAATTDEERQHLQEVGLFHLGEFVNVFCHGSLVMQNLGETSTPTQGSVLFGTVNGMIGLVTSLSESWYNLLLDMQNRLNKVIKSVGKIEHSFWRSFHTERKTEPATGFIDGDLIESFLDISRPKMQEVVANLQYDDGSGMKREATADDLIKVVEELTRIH

T4 sequence (Q9UKT9 whole entry): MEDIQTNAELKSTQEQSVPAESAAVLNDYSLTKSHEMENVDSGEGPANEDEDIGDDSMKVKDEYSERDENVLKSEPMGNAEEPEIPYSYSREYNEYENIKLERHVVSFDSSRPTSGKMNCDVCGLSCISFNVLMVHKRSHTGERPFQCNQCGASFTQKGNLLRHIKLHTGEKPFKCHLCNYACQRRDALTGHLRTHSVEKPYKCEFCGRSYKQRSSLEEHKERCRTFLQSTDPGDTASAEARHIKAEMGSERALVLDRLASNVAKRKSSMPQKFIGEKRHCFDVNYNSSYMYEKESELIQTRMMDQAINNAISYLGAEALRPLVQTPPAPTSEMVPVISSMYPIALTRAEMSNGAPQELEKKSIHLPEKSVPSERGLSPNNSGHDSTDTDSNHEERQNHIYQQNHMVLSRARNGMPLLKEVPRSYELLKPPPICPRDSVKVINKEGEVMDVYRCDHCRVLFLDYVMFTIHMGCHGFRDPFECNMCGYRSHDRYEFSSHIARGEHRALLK
T4 sequence (Q96SW2 whole entry): as the sequence (Q96SW2 whole entry) above
T4 sequence (Q16531 whole entry partner): as the sequence (Q16531 whole entry partner) above
T2 sequence (Q13422 whole entry): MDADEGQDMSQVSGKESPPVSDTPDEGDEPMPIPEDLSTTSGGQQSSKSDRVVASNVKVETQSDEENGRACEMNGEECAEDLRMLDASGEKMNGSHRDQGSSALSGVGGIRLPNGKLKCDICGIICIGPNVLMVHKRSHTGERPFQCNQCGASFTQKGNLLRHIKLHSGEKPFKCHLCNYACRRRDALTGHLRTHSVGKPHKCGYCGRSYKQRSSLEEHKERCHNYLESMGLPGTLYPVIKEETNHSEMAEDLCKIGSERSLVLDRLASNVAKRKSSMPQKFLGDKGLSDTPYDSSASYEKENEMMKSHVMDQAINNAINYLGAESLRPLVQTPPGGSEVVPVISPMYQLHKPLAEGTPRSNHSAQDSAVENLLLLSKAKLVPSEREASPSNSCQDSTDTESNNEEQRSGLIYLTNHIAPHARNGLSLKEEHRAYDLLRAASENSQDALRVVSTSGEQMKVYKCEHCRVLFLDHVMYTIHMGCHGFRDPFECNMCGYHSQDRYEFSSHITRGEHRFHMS
T2 sequence (Q96SW2 whole entry): as the sequence (Q96SW2 whole entry) above
T2 sequence (Q16531 whole entry partner): as the sequence (Q16531 whole entry partner) above
T5 sequence (P48729 whole entry): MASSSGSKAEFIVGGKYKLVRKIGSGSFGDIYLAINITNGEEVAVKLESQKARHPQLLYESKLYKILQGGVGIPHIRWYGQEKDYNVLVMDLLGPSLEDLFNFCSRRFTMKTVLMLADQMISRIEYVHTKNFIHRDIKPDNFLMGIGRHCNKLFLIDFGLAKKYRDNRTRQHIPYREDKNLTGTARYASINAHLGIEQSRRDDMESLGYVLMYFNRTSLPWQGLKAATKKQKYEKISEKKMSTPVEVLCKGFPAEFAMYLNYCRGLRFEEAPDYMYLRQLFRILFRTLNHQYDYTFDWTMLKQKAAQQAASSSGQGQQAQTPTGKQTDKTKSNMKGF
T5 sequence (Q96SW2 whole entry): as the sequence (Q96SW2 whole entry) above
T5 sequence (Q16531 whole entry partner): as the sequence (Q16531 whole entry partner) above
T1 sequence (P30291 whole entry): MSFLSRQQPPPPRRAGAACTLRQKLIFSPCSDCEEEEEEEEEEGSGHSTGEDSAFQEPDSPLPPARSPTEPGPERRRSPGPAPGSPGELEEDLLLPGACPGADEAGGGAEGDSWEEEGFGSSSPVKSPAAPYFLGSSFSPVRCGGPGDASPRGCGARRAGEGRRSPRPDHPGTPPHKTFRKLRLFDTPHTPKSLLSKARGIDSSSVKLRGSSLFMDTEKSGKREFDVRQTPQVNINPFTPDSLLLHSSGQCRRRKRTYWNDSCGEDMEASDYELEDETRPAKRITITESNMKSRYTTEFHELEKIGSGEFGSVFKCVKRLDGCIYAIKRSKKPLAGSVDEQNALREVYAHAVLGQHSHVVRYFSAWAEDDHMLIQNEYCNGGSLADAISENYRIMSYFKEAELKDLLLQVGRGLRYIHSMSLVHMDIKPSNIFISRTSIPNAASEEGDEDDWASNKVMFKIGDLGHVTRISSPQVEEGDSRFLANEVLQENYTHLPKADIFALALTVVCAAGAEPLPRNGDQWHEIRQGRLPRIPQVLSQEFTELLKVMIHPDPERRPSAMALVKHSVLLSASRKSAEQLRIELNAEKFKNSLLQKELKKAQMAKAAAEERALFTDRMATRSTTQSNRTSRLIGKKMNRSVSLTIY
T1 sequence (Q96SW2 whole entry): as the sequence (Q96SW2 whole entry) above
T1 sequence (Q16531 whole entry partner): as the sequence (Q16531 whole entry partner) above

| SMILES | Weel substrate protein remaining % (WEE1) | IKZF 1 substrate protein remaining % (IKZF1) | IKZF2 substrate protein remaining % (IKZF2) | IKZF3 substrate protein remaining % (IKZF3) | CK1a substrate protein remaining % (CK1α) | GSPT1 substrate protein remaining % (GSPT1) |
| --- | --- | --- | --- | --- | --- | --- |
| O=C1CCC(N2C(=O)c3ccc(CN4CCN(c5cccc(C(F)(F)F)n5)CC4)cc3C2=O)C(=O)N1 (stereo not drawn) [GT-06530, 2-(2,6-dioxopiperidin-3-yl)-5-((4-(6-(trifluoromethyl)pyridin-2-yl)piperazin-1-yl)methyl)isoindoline-1,3-dione] | B (80%< substrate protein remaining %≤ 100%) | B (80%< substrate protein remaining %≤ 100%) | B (80%< substrate protein remaining %≤ 100%) | B (80%< substrate protein remaining %≤ 100%) | B (80%< substrate protein remaining %≤ 100%) | A (0% ≤ substrate protein remaining % ≤ 80%) |
| O=C1CCC(N2C(=O)c3ccc(CN4CCN(c5ccc(C(F)(F)F)cn5)CC4)cc3C2=O)C(=O)N1 (stereo not drawn) [GT-06531, 2-(2,6-dioxopiperidin-3-yl)-5-((4-(5-(trifluoromethyl)pyridin-2-yl)piperazin-1-yl)methyl)isoindoline-1,3-dione] | B (80%< substrate protein remaining %≤ 100%) | B (80%< substrate protein remaining %≤ 100%) | B (80%< substrate protein remaining %≤ 100%) | B (80%< substrate protein remaining %≤ 100%) | B (80%< substrate protein remaining %≤ 100%) | A (0% ≤ substrate protein remaining % ≤ 80%) |
| O=C1CCC(N2C(=O)c3ccc(CN4CCN(c5ncc(Cl)cc5Cl)CC4)cc3C2=O)C(=O)N1 (stereo not drawn) [GT-06532, 5-((4-(3,5-dichloropyridin-2-yl)piperazin-1-yl)methyl)-2-(2,6-dioxopiperidin-3-yl)isoindoline-1,3-dione] | B (80%< substrate protein remaining %≤ 100%) | B (80%< substrate protein remaining %≤ 100%) | B (80%< substrate protein remaining %≤ 100%) | B (80%< substrate protein remaining %≤ 100%) | B (80%< substrate protein remaining %≤ 100%) | A (0% ≤ substrate protein remaining % ≤ 80%) |
| O=C1CCC(N2C(=O)c3ccc(CN4CCN(c5nccc(I)c5F)CC4)cc3C2=O)C(=O)N1 (stereo not drawn) [GT-06533, 2-(2,6-dioxopiperidin-3-yl)-5-((4-(3-fluoro-4-iodopyridin-2-yl)piperazin-1-yl)methyl)isoindoline-1,3-dione] | B (80%< substrate protein remaining %≤ 100%) | B (80%< substrate protein remaining %≤ 100%) | B (80%< substrate protein remaining %≤ 100%) | B (80%< substrate protein remaining %≤ 100%) | B (80%< substrate protein remaining %≤ 100%) | A (0% ≤ substrate protein remaining % ≤ 80%) |
| O=C1CCC(N2C(=O)c3ccc(CN4CCN(c5ccnc(Cl)c5Cl)CC4)cc3C2=O)C(=O)N1 (stereo not drawn) [GT-06534, 5-((4-(2,3-dichloropyridin-4-yl)piperazin-1-yl)methyl)-2-(2,6-dioxopiperidin-3-yl)isoindoline-1,3-dione] | B (80%< substrate protein remaining %≤ 100%) | B (80%< substrate protein remaining %≤ 100%) | B (80%< substrate protein remaining %≤ 100%) | B (80%< substrate protein remaining %≤ 100%) | B (80%< substrate protein remaining %≤ 100%) | A (0% ≤ substrate protein remaining % ≤ 80%) |
| O=C1CCC(N2C(=O)c3ccc(CN4CCN(c5ccnc(F)c5F)CC4)cc3C2=O)C(=O)N1 (stereo not drawn) [GT-06535, 5-((4-(2,3-difluoropyridin-4-yl)piperazin-1-yl)methyl)-2-(2,6-dioxopiperidin-3-yl)isoindoline-1,3-dione] | B (80%< substrate protein remaining %≤ 100%) | B (80%< substrate protein remaining %≤ 100%) | A (0% ≤ substrate protein remaining % ≤ 80%) | A (0% ≤ substrate protein remaining % ≤ 80%) | B (80%< substrate protein remaining %≤ 100%) | B (80%< substrate protein remaining %≤ 100%) |
| O=C1CCC(N2C(=O)c3ccc(CN4CCN(c5c(Cl)ccnc5Cl)CC4)cc3C2=O)C(=O)N1 (stereo not drawn) [GT-06552, 5-((4-(2,4-dichloropyridin-3-yl)piperazin-1-yl)methyl)-2-(2,6-dioxopiperidin-3-yl)isoindoline-1,3-dione] | B (80%< substrate protein remaining %≤ 100%) | B (80%< substrate protein remaining %≤ 100%) | A (0% ≤ substrate protein remaining % ≤ 80%) | B (80%< substrate protein remaining %≤ 100%) | B (80%< substrate protein remaining %≤ 100%) | A (0% ≤ substrate protein remaining % ≤ 80%) |
| O=C1CCC(N2C(=O)c3ccc(CN4CCN(c5ccncc5)CC4)cc3C2=O)C(=O)N1 (stereo not drawn) [GT-06553, 2-(2,6-dioxopiperidin-3-yl)-5-((4-(pyridin-4-yl)piperazin-1-yl)methyl)isoindoline-1,3-dione] | B (80%< substrate protein remaining %≤ 100%) | B (80%< substrate protein remaining %≤ 100%) | A (0% ≤ substrate protein remaining % ≤ 80%) | B (80%< substrate protein remaining %≤ 100%) | B (80%< substrate protein remaining %≤ 100%) | A (0% ≤ substrate protein remaining % ≤ 80%) |
| Cc1cc(N2CCN(Cc3ccc4c(c3)C(=O)N(C3CCC(=O)NC3=O)C4=O)CC2)ccn1 (stereo not drawn) [GT-06554, 2-(2,6-dioxopiperidin-3-yl)-5-((4-(2-methylpyridin-4-yl)piperazin-1-yl)methyl)isoindoline-1,3-dione] | B (80%< substrate protein remaining %≤ 100%) | B (80%< substrate protein remaining %≤ 100%) | A (0% ≤ substrate protein remaining % ≤ 80%) | B (80%< substrate protein remaining %≤ 100%) | B (80%< substrate protein remaining %≤ 100%) | A (0% ≤ substrate protein remaining % ≤ 80%) |
| O=C1CCC(N2C(=O)c3ccc(CN4CCN(c5nccc(F)c5F)CC4)cc3C2=O)C(=O)N1 (stereo not drawn) [GT-06555, 5-((4-(3,4-difluoropyridin-2-yl)piperazin-1-yl)methyl)-2-(2,6-dioxopiperidin-3-yl)isoindoline-1,3-dione] | B (80%< substrate protein remaining %≤ 100%) | B (80%< substrate protein remaining %≤ 100%) | A (0% ≤ substrate protein remaining % ≤ 80%) | B (80%< substrate protein remaining %≤ 100%) | B (80%< substrate protein remaining %≤ 100%) | A (0% ≤ substrate protein remaining % ≤ 80%) |
| O=C1CCC(N2C(=O)c3ccc(CN4CCN(c5ccncc5Br)CC4)cc3C2=O)C(=O)N1 (stereo not drawn) [GT-06556, 5-((4-(3-bromopyridin-4-yl)piperazin-1-yl)methyl)-2-(2,6-dioxopiperidin-3-yl)isoindoline-1,3-dione] | B (80%< substrate protein remaining %≤ 100%) | B (80%< substrate protein remaining %≤ 100%) | A (0% ≤ substrate protein remaining % ≤ 80%) | B (80%< substrate protein remaining %≤ 100%) | B (80%< substrate protein remaining %≤ 100%) | A (0% ≤ substrate protein remaining % ≤ 80%) |
| O=C1CCC(N2C(=O)c3ccc(CN4CCC(c5ncnc6sccc56)CC4)cc3C2=O)C(=O)N1 (stereo not drawn) [GT-06591, 2-(2,6-dioxopiperidin-3-yl)-5-((4-(thieno[2,3-d]pyrimidin-4-yl)piperidin-1-yl)methyl)isoindoline-1,3-dione] | A (0% ≤ substrate protein remaining % ≤ 80%) | B (80%< substrate protein remaining %≤ 100%) | B (80%< substrate protein remaining %≤ 100%) | B (80%< substrate protein remaining %≤ 100%) | B (80%< substrate protein remaining %≤ 100%) | A (0% ≤ substrate protein remaining % ≤ 80%) |
